Entries after “also recorded” stand apart in the source; their conditions may differ. One block for each compound: values may come before it. Square brackets hold non-standard residues; d marks the D form. Peptide text beside a SMILES is read from it. pY = N[C@@H](Cc1ccc(OP(=O)(O)O)cc1)C(=O)O; 2Nal = N[C@@H](Cc1ccc2ccccc2c1)C(=O)O; NF = naphthofluorescein
Legend:
Keap1-Nrf2 interaction = Keap1-Nrf2 interaction (Homo sapiens, UniProt Q14145); experiment: Fluorescence anisotropy-based competition assay, inhibition of Keap1-Nrf2 peptide interaction; type: binding; conditions: for IC50: FA competition with fluorescently labeled Nrf2 peptide and Keap1; for Decrease of affinity for Keap1 / inhibition potency: Asn-Ala analogues vs Asp-Pro parents (BH13, BH15, BH17), BH19: truncation of cargo to 6-aa
Chain of Keap1-Nrf2 interaction (Q14145 321-609 limits assumed): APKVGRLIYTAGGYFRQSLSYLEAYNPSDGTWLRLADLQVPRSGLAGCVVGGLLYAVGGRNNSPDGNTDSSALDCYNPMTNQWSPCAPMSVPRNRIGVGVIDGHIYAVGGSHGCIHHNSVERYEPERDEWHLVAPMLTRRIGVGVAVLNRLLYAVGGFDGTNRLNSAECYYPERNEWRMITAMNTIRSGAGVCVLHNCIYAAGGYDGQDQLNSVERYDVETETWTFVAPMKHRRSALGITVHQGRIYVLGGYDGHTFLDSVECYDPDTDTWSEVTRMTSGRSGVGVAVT
Method: The percentage of inhibition was calculated from the fluorescence anisotropy decrease by using equation % Inhibition=(FAmax−FAobs)/(FAmax−FAmin)×100% and plotted against the inhibitor concentration.

Grb2 SH2 domain = Grb2 SH2 domain (Homo sapiens, UniProt P62993); experiment: FP-based competition assay with FAM-labeled reporter ligand for Grb2 SH2 domain; type: binding
Chain of Grb2 SH2 domain (P62993 60-152 limits assumed): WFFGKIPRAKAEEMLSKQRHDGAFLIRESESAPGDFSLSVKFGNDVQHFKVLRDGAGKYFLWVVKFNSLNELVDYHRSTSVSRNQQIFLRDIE
Method: FIG. 10(a) is the structure of a Grb2 SH2 ligand. […] This ligand was used as reporter ligand in FA/FP-based competition assays to determine the binding affinities of new Grb2 SH2 domain ligands.
(§1) The binding affinity of BH23 (unlabeled) for the Grb2 SH2 domain was then determined by examining its ability to compete with the FAM-labeled ligand for binding to the Grb2 SH2 domain by fluorescence polarization (FP). […] Next, BH23 was labeled with NF at the Asn side chain through a miniPEG-Lys linker and its cytosolic entry efficiency was quantitated by treating HeLa cells with 5 μM of the labeled peptide for 2 h before flow cytometry analysis. […] BH23 was also similarly labeled at the Asn side chain with FAM and its entry into HeLa cells was examined by live-cell confocal microscopy. […] Two control peptides (BH24 and BH25) were also prepared for cellular assays. BH24 and BH25 are structurally similar to BH23, except that BH24 contained a Tyr instead of the pY residue (FIG. 11), whereas in BH25 the two hydrophobic residues critical for cellular uptake (Nal-arg) were replaced with Ala-ala (FIG. 12).

[1] = tested on: Grb2/Ras signaling pathway, MDA-MB-468 breast cancer cells; experiment: Western blot of MEK and ERK1/2 phosphorylation in EGF-stimulated MDA-MB-468 cells; type: cell-based; conditions: peptide 2 h, EGF 50 ng/mL 10 min
Method: FIG. 13 provides western blots depicting the effect of peptides BH23, BH24, and BH25 on the Grb2/Ras signaling pathway. MDA-MB-468 cells were treated with the indicated concentrations of peptide BH23 (a) or control peptides BH24 and BH25 (b) for 2 h and stimulated with EGF (50 ng/mL) for 10 min. The cells were then lysed and the cell lysates were separated on SDS-PAGE and blotted with antibodies specific for phosphorylated and total kinases in the Ras signaling pathway. Glyceraldehyde 3-phosphate dehydrogenase (GAPDH) was used as the loading control. […] Inhibition of ERK1/2 phosphorylation was less dramatic, as expected from its further downstream position on the Grb2/Ras signaling pathway.
FIG. 14(a) is the structure of BH26. FIG. 14(b) provides western blots showing the effect of peptides BH23 and BH26 on the Grb2/Ras signaling pathway. MDA-MB-468 cells were treated with the indicated concentrations of BH23 or BH26 for 2 h and stimulated with EGF (50 ng/mL) for 10 min. The cells were then lysed and the cell lysates were separated on SDS-PAGE and blotted with antibodies specific for phosphorylated and total kinases in the Ras signaling pathway.
BH23 and BH24 were tested for their ability to inhibit the Grb2/Ras signaling pathways, by monitoring the phosphorylation of MEK and ERK1/2 kinases downstream of Ras.

HeLa cells = experiment: Cellular (cytosolic) uptake of NF-labeled peptides by flow cytometry (MFI); type: cell-based; conditions: HeLa cells; for Cellular Uptake (MFI^NF, %) of Keap1-Nrf2 inhibitors: NF-labeled peptide
Method: HeLa cells were treated with 5 μM peptide for 2 h, and their cell uptake efficiencies were determined by flow cytometry analysis. The mean fluorescence intensity (MFI) values derived from cytometry analyses reflect the amounts of peptides inside the cytosol and nucleus, whereas any NF-labeled peptide entrapped inside the acidic endosomes are invisible under the experimental conditions (Id.; Qian, Z et al. Chem. Commun. 2015, 51, 2162-2165).
as §1
BHT1 and BHT2 were labeled with naphthofluorescein (NF) and their cytosolic uptake into HeLa cells was determined by flow cytometry (Table 10).
Additional cell penetrating compounds were prepared and tested for cytosolic delivery. In these compounds there was no beta-hairpin turn creating moiety.

[2] = tested on: HO-1 protein (Keap1-Nrf2-ARE pathway), HEK293 cells; experiment: Anti-HO1 immunoblot of HO-1 protein level in HEK293 cells; type: cell-based, human; conditions: 10 μM
Method: FIG. 5 is an image from a Western blot analysis of HO-1 protein levels in HEK293 cells untreated or after treatment with SFN (10 μM) or a cyclic β-hairpin peptide (40 μM).
FIG. 8 is a western blot showing the effect of peptide BH15 on the protein level of HO-1, a protein downstream of the Keap1-Nrf2-ARE pathway. SFN, a small-molecule positive control; blank, no inhibitor.
The cellular activity of Keap1-Nrf2 inhibitors BH13-18 was assessed by examining their effects on the expression levels of HO-1 protein, by anti-HO1 immunoblot analysis. HO-1 is an antioxidant enzyme under the transcriptional control of Nrf2 binding to the ARE, and disruption of the Keap1-Nrf2 interaction is expected to increase the protein level of HO-1.
BH15 enters human cells, binds and inhibits the function of Keap1 (which promotes the ubiquitination and degradation of Nrf2), resulting in increased intracellular levels of Nrf2, a transcription factor. […] This in turn results in the increased levels of HO-1, a protein whose expression is controlled by Nrf2.

mammalian cells = conditions: Qian et al. 2013; cited from earlier work
[3] = LaRochelle et al. 2015; cited from earlier work
[4] = flow cytometry, relative to CPP1 (100%)

IC50 (Keap1-Nrf2 interaction): ~160 nM
Compound: CC(C)C[C@@H]1NC(=O)[C@H](CCC(N)=O)NC(=O)[C@H](Cc2ccccc2)NC(=O)[C@H](CCCNC(=N)N)NC(=O)[C@H](CCCNC(=N)N)NC(=O)[C@@H]2CCCN2C(=O)[C@H]2CCCN2C(=O)[C@@H](CCCNC(=N)N)NC(=O)[C@H](Cc2ccc3ccccc3c2)NC(=O)[C@H](Cc2ccccc2)NC(=O)[C@H](Cc2ccccc2)NC(=O)[C@H](CCC(=O)O)NC(=O)CNC(=O)[C@H]([C@@H](C)O)NC(=O)[C@H](CCC(=O)O)NC(=O)[C@@H]2CCCN2C(=O)[C@H](CC(=O)O)NC1=O [BH13, cyclo(F-F-Φ-r-p-P-R-R-F-Q-L-D-P-E-T-G-E)] (cyclo(FF[2Nal][dR][dP]PRRFQLDPETGE))

Decrease of affinity for Keap1 / inhibition potency (Keap1-Nrf2 interaction): ~10 fold | IC50 (Keap1-Nrf2 interaction): 1400 ± 130 nM
Compound: CC(C)C[C@@H]1NC(=O)[C@H](CCC(N)=O)NC(=O)[C@H](Cc2ccccc2)NC(=O)[C@H](CCCNC(=N)N)NC(=O)[C@H](CCCNC(=N)N)NC(=O)[C@@H]2CCCN2C(=O)[C@H]2CCCN2C(=O)[C@@H](CCCNC(=N)N)NC(=O)[C@H](Cc2ccc3ccccc3c2)NC(=O)[C@H](Cc2ccccc2)NC(=O)[C@H](Cc2ccccc2)NC(=O)[C@H](CCC(=O)O)NC(=O)CNC(=O)[C@H]([C@@H](C)O)NC(=O)[C@H](CCC(=O)O)NC(=O)[C@H](C)NC(=O)[C@H](CC(N)=O)NC1=O [BH14, cyclo(F-F-Φ-r-p-P-R-R-F-Q-L-N-A-E-T-G-E)] (cyclo(FF[2Nal][dR][dP]PRRFQLNAETGE))

Decrease of affinity for Keap1 / inhibition potency (Keap1-Nrf2 interaction): ~10 fold
Compound: CC(C)C[C@@H]1NC(=O)[C@H](Cc2ccccc2)NC(=O)[C@H](CCCNC(=N)N)NC(=O)[C@H](CCCNC(=N)N)NC(=O)[C@@H]2CCCN2C(=O)[C@H]2CCCN2C(=O)[C@@H](CCCNC(=N)N)NC(=O)[C@H](Cc2ccc3ccccc3c2)NC(=O)[C@H](Cc2ccccc2)NC(=O)[C@H](Cc2ccccc2)NC(=O)[C@H](CCC(=O)O)NC(=O)CNC(=O)[C@H]([C@@H](C)O)NC(=O)[C@H](CCC(=O)O)NC(=O)[C@H](C)NC(=O)[C@H](CC(N)=O)NC1=O [BH16, cyclo(F-F-Φ-r-p-P-R-R-F-L-N-A-E-T-G-E)] (cyclo(FF[2Nal][dR][dP]PRRFLNAETGE))

Decrease of affinity for Keap1 / inhibition potency (Keap1-Nrf2 interaction): ~10 fold | IC50 (Keap1-Nrf2 interaction): 1400 ± 150 nM
Compound: CC(C)C[C@@H]1NC(=O)[C@H](Cc2ccccc2)NC(=O)[C@H](CCCNC(=N)N)NC(=O)[C@H](CCCNC(=N)N)NC(=O)[C@@H]2CCCN2C(=O)[C@H]2CCCN2C(=O)[C@@H](CCCNC(=N)N)NC(=O)[C@H](Cc2ccc3ccccc3c2)NC(=O)[C@H](Cc2ccccc2)NC(=O)[C@H](CCC(=O)O)NC(=O)CNC(=O)[C@H]([C@@H](C)O)NC(=O)[C@H](CCC(=O)O)NC(=O)[C@H](C)NC(=O)[C@H](CC(N)=O)NC1=O [BH18, cyclo(F-Φ-r-p-P-R-R-F-L-N-A-E-T-G-E)] (cyclo(F[2Nal][dR][dP]PRRFLNAETGE))

Decrease of affinity for Keap1 / inhibition potency (Keap1-Nrf2 interaction): 34 fold
Compound: C[C@@H]1NC(=O)[C@H](CC(N)=O)NC(=O)[C@H](Cc2ccccc2)NC(=O)[C@H](CCCNC(=N)N)NC(=O)[C@H](CCCNC(=N)N)NC(=O)[C@@H]2CCCN2C(=O)[C@H]2CCCN2C(=O)[C@@H](CCCNC(=N)N)NC(=O)[C@H](Cc2ccc3ccccc3c2)NC(=O)[C@H](Cc2ccccc2)NC(=O)[C@H](CCC(=O)O)NC(=O)CNC(=O)[C@H]([C@@H](C)O)NC(=O)[C@H](CCC(=O)O)NC1=O [BH19, cyclo(F-Φ-r-p-P-R-R-F-N-A-E-T-G-E)] (cyclo(F[2Nal][dR][dP]PRRFNAETGE))

IC50 (Grb2 SH2 domain; unlabeled peptide, FP-based competition with FAM-labeled ligand, read-out: IC50 Value, binding to Grb2 SH2 domain): > 10000 nM
Compound: CC(C)[C@@H]1NC(=O)[C@H](Cc2ccc(O)cc2)NC(=O)[C@H](CCCNC(=N)N)NC(=O)[C@H](CCCNC(=N)N)NC(=O)[C@@H]2CCCN2C(=O)[C@H]2CCCN2C(=O)[C@@H](CCCNC(=N)N)NC(=O)[C@H](Cc2ccc3ccccc3c2)NC(=O)[C@H](Cc2ccccc2)NC(=O)[C@H](CC(N)=O)NC1=O [BH24, cyclo[F-Φ-r-p-P-R-R-Y-V-N)] (cyclo(YVNF[2Nal][dR][dP]PRR))
Binding to the Grb2 SH2 domain (in words) (Grb2 SH2 domain; competition with fluorescently labeled reporter ligand): no detectable binding; also recorded: inability to compete | Phosphorylation of MEK [1]: did not decrease and not

Compound: CC(C)[C@@H]1NC(=O)[C@H](Cc2ccc(OP(=O)(O)O)cc2)NC(=O)[C@H](CCCNC(=N)N)NC(=O)[C@H](CCCNC(=N)N)NC(=O)[C@@H]2CCCN2C(=O)[C@H]2CCCN2C(=O)[C@@H](C)NC(=O)[C@H](C)NC(=O)[C@H](Cc2ccccc2)NC(=O)[C@H](CC(N)=O)NC1=O [BH25, cyclo[F-A-a-p-P-R-R-pY-V-N)] (cyclo([pY]VNFA[dA][dP]PRR))
Phosphorylation of MEK [1]: did not decrease and not | Cellular entry / delivery efficiency (in words) (HeLa cells; flow cytometry): poor cellular uptake

Compound: C[S+]([O-])CCCCN=C=S (centres unmarked) [SFN, Sulforaphane, reference compound]
HO-1 level (positive control) [2]: increased

Compound: cyclo(F-Φ-R-R-R-R-Q)-miniPEG-K(NF) (cyclo(F[2Nal]RRRRQ); not fully specified (residue 7); printed as cyclo(F-Φ-R-R-R-R-Q)-miniPEG-K(NF)) [CPP1, reference compound]
Cellular Uptake (MFINF, %) (HeLa cells; 5 μM NF-labeled peptide, 2 h, flow cytometry, relative to CPP1 (100%)): 100% | Cellular Uptake (MFI^NF, %) of Keap1-Nrf2 inhibitors (HeLa cells; [4]): 100% | Efficiency of entry into cytoplasm and nucleus, fold higher than nonaarginine (R9) (mammalian cells): 2-5 fold

Compound: cyclo[F-F-Φ-r-P-p-R-R-F-Q-K(NF)-D-P-E-T-G-E] (cyclo(FF[2Nal][dR]P[dP]RRFQK(NF)DPETGE)) [BH22]
Cellular Uptake (MFI^NF, %) of Keap1-Nrf2 inhibitors (HeLa cells; [4]): 56.9% | Cellular entry, fold less efficient than BH20 (HeLa cells; -L-Pro-D-Pro- instead of -D-Pro-L-Pro-): ~2 fold

Compound: cyclo[F-F-Φ-r-p-P-R-R-F-Q-K(NF)-D-P-E-T-G-E] (cyclo(FF[2Nal][dR][dP]PRRFQK(NF)DPETGE)) [BH20]
Cellular Uptake (MFI^NF, %) of Keap1-Nrf2 inhibitors (HeLa cells; [4]): 122.4% | Cellular entry / delivery efficiency (in words) (HeLa cells; flow cytometry): less efficiently than BH6 and BH12

Compound: cyclo[F-Φ-r-p-P-R-R-F-K(NF)-D-P-E-T-G-E] (cyclo(F[2Nal][dR][dP]PRRFK(NF)DPETGE)) [BH21]
Cellular Uptake (MFI^NF, %) of Keap1-Nrf2 inhibitors (HeLa cells; [4]): 44.6% | Cellular entry / delivery efficiency (in words) (HeLa cells; flow cytometry): less efficiently than BH6 and BH12

Compound: nonaarginine (RRRRRRRRR) [Peptide R9]
Cytosolic delivery efficiency (ratio of cytosolic over extracellular cargo concentrations) [3]: 4.4%

Source: patent publication US11352394B2, “Cyclic cell penetrating peptides comprising beta-hairpin motifs and methods of making and using thereof” (Ohio State Innovation Foundation, priority 2016, dated 2022)
